Source: patent US5736380A, “Maltose-trehalose converting enzyme, and preparation and uses thereof” (Kabushiki Kaisha Hayashibara Seibutsu Kagaku Kenkyujo, priority 1993, dated 1998)

Key:
[1] = tested on: Partially purified enzymes derived from known microorganisms of the genus Thermus; test: Action on saccharides, partially purified enzymes; assay type: biochemical; conditions: method of Experiment 18
Description: (§1) A variety of saccharides were tested for determining whether they could be used as a substrate for the present enzyme from Thermus aquaticus (ATCC 33923), obtained in accordance with the method in Experiment 4 except for setting the reaction temperature to 50° C. Similarly as the enzymes from Pimelobacter sp.
Among conventional microorganisms, a microorganism which had been confirmed its ability to form the present maltose-trehalose converting enzyme was incubated in an Erlenmeyer flask for 48 hours in accordance with Experiment 15. After analyzed the enzyme activity, the resultant culture was subjected to a cell disrupting apparatus in accordance with Experiment 16. From the resultant mixture a supernatant was prepared and dialyzed to obtain a partially purified enzyme, followed by analyzing the property in accordance with Experiment 17.
Partially purified enzymes derived from known microorganisms of the genus Thermus as shown in Table 12 were studied on their action on a variety of saccharides in accordance with the method in Experiment 18.

[2] = target: T1, maltose-trehalose converting enzyme derived from Pimelobacter sp. R48 (Pimelobacter sp., UniProt P72235); test: Action on saccharides (TLC before and after enzymatic reaction); assay type: biochemical; conditions: 20° C., pH 7.0, 24 hours
T1 construct: The culture obtained in Experiment 1 was centrifuged to obtain an about 0.5 kg wet cells; endogenous in cells; host or cells: Pimelobacter sp; R48 (FERM BP-4315), enzyme purified from the disrupted wild-type cells
T1 sequence (P72235 1-573): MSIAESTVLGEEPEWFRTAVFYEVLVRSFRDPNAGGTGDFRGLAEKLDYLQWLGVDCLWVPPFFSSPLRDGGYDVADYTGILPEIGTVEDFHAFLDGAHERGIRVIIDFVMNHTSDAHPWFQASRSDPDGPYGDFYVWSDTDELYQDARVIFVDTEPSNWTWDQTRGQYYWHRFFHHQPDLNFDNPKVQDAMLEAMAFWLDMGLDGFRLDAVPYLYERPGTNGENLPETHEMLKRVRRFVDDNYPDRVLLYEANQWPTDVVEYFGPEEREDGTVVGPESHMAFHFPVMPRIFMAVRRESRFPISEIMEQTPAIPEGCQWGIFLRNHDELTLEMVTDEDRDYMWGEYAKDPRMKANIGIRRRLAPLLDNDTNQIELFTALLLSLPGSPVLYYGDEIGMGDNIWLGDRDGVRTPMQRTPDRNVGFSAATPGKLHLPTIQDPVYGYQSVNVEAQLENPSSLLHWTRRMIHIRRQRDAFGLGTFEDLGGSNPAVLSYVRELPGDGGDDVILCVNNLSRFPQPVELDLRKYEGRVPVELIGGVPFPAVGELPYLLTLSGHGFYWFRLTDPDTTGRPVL
Description: A variety of saccharides were tested for determining whether they could be used as a substrate for the present enzyme. Glucose, maltose, maltotriose,maltotetraose, maltopentaose, maltohexaose, maltoheptaose, soluble starch, amylose having an average polymerization degree of 18, trehalose, neotrehalose, gentiobiose, kojibiose, isomaltose, cellobiose, maltitol, sucrose, maltulose, turanose, paratinose, trehalulose or lactose was prepared into a solution. A solution containing glucose and the equal amount of α-glucose 1-phosphate or β-glucose 1-phosphate was prepared.
(§2) The solutions were respectively mixed with 2 units/g substrate, d.s.b., of a maltose-trehalose converting enzyme obtained by the method in Experiment 2, adjusted their substrate concentrations to 5 w/v %, and subjected to enzymatic reaction at 20° C. and pH 7.0 for 24 hours. The solutions before and after their enzymatic reactions were subjected to thin layer chromatography (TLC) using "[…] 60 (20×20 cm)", an aluminum plate for TLC commercialized by Merck & Co., Inc., Rahway, USA, for determining whether the present enzyme acts on the saccharides. The resultant products were developed once on the plates by using a developing solvent system of 1-butanol, pyridine and water (=6:4:1 by volume). The products on the plates were colored by spraying thereto a 20 v/v % sulfuric acid in methanol, and heating the plates at 110° C. for 10 min.

[3] = target: enzyme from Pseudomonas putida H262 (Pseudomonas putida, UniProt Q88FN0); test: Action on saccharides (TLC), 35° C.; assay type: biochemical
Description: A variety of saccharides were tested for determining whether they could be used as a substrate for the present enzyme.
as §2
as §1, with “Pseudomonas putida H262” for “Thermus aquaticus (ATCC 33923),”, “obtained in Experiment 10” for “obtained”, “35°” for “50°”, “enzyme from Pseudomonas putida H262, the enzyme” for “enzymes”

[4] = Utilization test in vivo (blood sugar- and insulin-levels after oral administration); conditions: 30 g as 20 w/v % aqueous solution, orally, healthy male volunteers
Description: In accordance with the method as reported by H. Atsuji et al. in Journal of Clinical Nutrition, Vol.41, No.2, pp.200-208 (1972), 30 g of the high-purity trehalose specimen with a purity of 99.8%, d.s.b., in Experiment 8 was prepared into a 20 w/v % aqueous solution which was then orally administered to 3 healthy male volunteers, and their bloods were sampled at prescribed time intervals, followed by the measurements of the blood sugar- and insulin-levels. As a control glucose was used. […] Thus, the present trehalose and saccharide composition containing the same are suitably used as an energy-supplementing saccharide.

[5] = Acute toxicity test, oral; assay type: in vivo; conditions: mouse, in vivo, mice, not so accurate
Description: (§3) By using mice, the high-purity trehalose specimen with a purity of 99.8%, d.s.b., prepared in Experiment 8 was orally administered to the mice for its acute toxicity test. […] Though it is not so accurate, the LD50 was determined to be 50 g/kg or higher.

mice = test: Acute toxicity test, oral; assay type: in vivo; conditions: highest level of dose administrable
Description: as §3

[6] = Physicochemical property of trehalose: solubility in water; conditions: at 25° C., for anhydrous trehalose
Description: A high-purity trehalose specimen prepared by the method in Experiment 8 was studied on its physicochemical property. As a result, the melting point was determined as 97.0° C., the specific rotation was [α]D^20 +199° […].

enzyme from Pseudomonas putida H262, sequence (Q88FN0 entry or part of it): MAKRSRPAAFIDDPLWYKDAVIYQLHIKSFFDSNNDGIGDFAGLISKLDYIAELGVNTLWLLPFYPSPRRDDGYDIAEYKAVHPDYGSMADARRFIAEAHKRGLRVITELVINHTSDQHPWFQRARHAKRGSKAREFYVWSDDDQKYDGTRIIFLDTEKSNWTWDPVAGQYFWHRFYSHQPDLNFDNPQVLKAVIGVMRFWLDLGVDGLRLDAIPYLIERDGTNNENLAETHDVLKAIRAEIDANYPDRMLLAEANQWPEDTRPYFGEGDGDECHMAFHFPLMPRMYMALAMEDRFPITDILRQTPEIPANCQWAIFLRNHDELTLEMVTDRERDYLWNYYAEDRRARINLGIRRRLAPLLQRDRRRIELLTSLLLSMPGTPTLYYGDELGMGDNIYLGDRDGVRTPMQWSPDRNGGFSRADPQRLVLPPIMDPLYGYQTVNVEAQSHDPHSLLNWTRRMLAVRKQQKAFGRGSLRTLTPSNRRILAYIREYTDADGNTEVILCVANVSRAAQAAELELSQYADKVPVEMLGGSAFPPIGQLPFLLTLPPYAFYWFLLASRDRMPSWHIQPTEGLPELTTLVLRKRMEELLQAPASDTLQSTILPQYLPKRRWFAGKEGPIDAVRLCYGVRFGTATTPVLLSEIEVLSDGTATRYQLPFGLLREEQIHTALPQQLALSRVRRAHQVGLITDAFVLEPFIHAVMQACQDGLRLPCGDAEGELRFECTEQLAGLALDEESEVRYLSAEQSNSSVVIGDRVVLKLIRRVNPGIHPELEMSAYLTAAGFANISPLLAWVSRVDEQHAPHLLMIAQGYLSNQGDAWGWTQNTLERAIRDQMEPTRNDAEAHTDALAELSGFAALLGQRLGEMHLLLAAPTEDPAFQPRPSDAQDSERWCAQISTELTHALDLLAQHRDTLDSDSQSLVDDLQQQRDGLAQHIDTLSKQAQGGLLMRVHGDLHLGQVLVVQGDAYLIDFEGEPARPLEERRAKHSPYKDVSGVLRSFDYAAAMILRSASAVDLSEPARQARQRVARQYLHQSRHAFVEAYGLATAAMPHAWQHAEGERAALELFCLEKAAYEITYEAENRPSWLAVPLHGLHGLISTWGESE

Structure (SMILES)	action of enzyme on saccharide [1]	Action of enzyme ([2]; 2 units/g substrate, substrate 5 w/v %)	action of enzyme on saccharide [2]	action of enzyme on saccharide [3]	blood sugar- and insulin-levels compared with glucose control [4]	time of the maximum of blood sugar-level after the administration [4]	time of the maximum of insulin-level after the administration [4]	LD50 [5]	mortality (mice)	solubility in water [6]
OC[C@H]1O[C@H](O[C@H]2[C@H](O)[C@@H](O)[C@H](O)O[C@@H]2CO)[C@H](O)[C@@H](O)[C@@H]1O [Maltose]	specifically acted on	+ +	only acts on	specifically acted on						
OC[C@H]1O[C@H](O[C@H]2O[C@H](CO)[C@@H](O)[C@H](O)[C@H]2O)[C@H](O)[C@@H](O)[C@@H]1O [Trehalose]	specifically acted on		only acts on	specifically acted on						
OC[C@H]1O[C@H](O[C@H]2O[C@H](CO)[C@@H](O)[C@H](O)[C@H]2O)[C@H](O)[C@@H](O)[C@@H]1O [high-purity trehalose specimen, trehalose]					behaved similarly as glucose	0.5 to 1 h	0.5 to 1 h	≥ 50000 mg/kg	no mouse died	77.0 g
